{"source": "patent US20240216289A1", "about": "“LIPIDOID NANOPARTICLES FOR THE TREATMENT OF DISEASES AND DISORDERS” (Trustees of Tufts College, priority 2021, published 2024)", "molecules": {"B1": {"name": "Ces1d: 5′UTR fragment, sequence in Table 1 (nucleic acid)", "DNA": "CCACTAGTTCTAGAGGTACCTTGGACCCTCGTACAGAAGCTAATACGACTCACTATAAGGAGGCGGGTCCCCTGGTCCACAACAGAAGCATTGCTAAAGCAGCAGATAGCTCAGAGACCCACAGAGCCCTTGTCCTTCCACAGAATTCGCCACCATGGAAGA"}}, "key": {"[1]": {"test_system": "HEK293T cells", "assay": "5′UTR and 3′UTR optimization in HEK293T cells (eGFP, flow cytometry)", "assay_type": "cell-based", "details": "LPF2k", "protocol": "5′UTR optimization in HEK293T cells. Prior to transfection, HEK293T cells were seeded on a 48-well plate at 40,000 cells/well, with 500 μL DMEM culture in each well. 6 groups were set with different treatments: Lipofectamine 2000 (LPF2k) only, pcDNA3.0-eGFP, pcDNA3.0-NCA7d-eGFP, pcDNA-70nt-eGFP, pcDNA3.0-Ces1d-eGFP and pcDNA3.0-S27a45′-eGFP. LPF2k was complexed each plasmid in equal amount (0.5 μg/0.5 μg) before being added to each well. At each time point (36 hrs, 60 hrs, 84 hrs and 108 hrs), cells were washed with PBS and then treated with 500 μL 0.25% Typsine-EDTA 10 (Gibco) for 3 min. Resuspended cells were applied to the Attune NxT Flow Cytometer (Thermo Fisher) directly (FIG. 10).\n3′UTR optimization in HEK293T cell. Similar to 5′UTR optimization, thirteen 3′UTRs modified pcDNA3.0-Ces1d-eGFP and pcDNA3.0-70nt-eGFP were encapsulated in LPF2k at a 1:1 weight ratio and then transfected into HEK293T cells. At each time point (48 hrs, 72 hrs, 96 hrs and 120 hrs), cells were washed with PBS and then treated with 500 μL 0.25% Typsine-EDTA (Gibco) for 3 min. Resuspended cell were applied to the Attune NxT Flow Cytometer (Thermo Fisher) directly (FIG. 11)."}, "[2]": {"test_system": "liver", "assay": "Mouse liver-directed 3′UTR and cap screening in mRNA format (L88 LNP, IVIS)", "assay_type": "in vivo, BALB/c mice", "details": "Lipid 88 delivery, 0.2 mg/kg IV", "protocol": "Mouse liver-directed 3′UTR screening in mRNA format. 6-week-old female BALB/c mice were used for in vivo modified Fluc-eGFP mRNA screening with L88 LNP delivery. Each UTRs modified Fluc-eGFP mRNA were encapsulated in an optimal Lipid 88 formulation (L88:Chol:DOPC:DMG-PEG=16:4:2:1, w w) at the weight ratio of 1:10 in PBS solution (RNase-free). The L88/Fluc-eGFP mRNA complex was intravenously injected into the mice at a mRNA dose of 0.2 mg/kg. At each preset time point, mice were injected with 100 μL of D-Luciferin potassium salt (GoldBio) solution (15 mg/mL in PBS), anesthetized under isoflurane anesthesia, and evaluated using IVIS imaging system (Caliper Life Sciences, US)."}, "[3]": {"test_system": "macrophages and dendritic cells (DCs) in inguinal lymph nodes", "assay": "Delivery of Cre mRNA to LNs in Ai14 reporter mice (tdTomato positive cells, flow cytometry)", "assay_type": "in vivo", "details": "LNP/Cre mRNA s.c., 48 h; result in words"}, "[4]": {"test_system": "IFN γ and IL-4 positive T cells", "assay": "IFN γ and IL-4 ELISpot after S protein mRNA vaccination", "assay_type": "in vivo, mice", "details": "spleen day 28", "procedure": "The blood and spleen were collected at day 28 for further analysis.\nThe T cell response after the vaccination was analyzed by IFN γ and IL-4 ELISpot (FIGS. 5A-C).\nThe T cell response after vaccination was tested by ELISpot assay."}, "[5]": {"test_system": "inguinal lymph nodes", "assay": "Luc mRNA expression in inguinal lymph nodes after subcutaneous tail-base injection of LNP/mLuc (IVIS)", "assay_type": "in vivo, Balb/c mice", "details": "subcutaneous at tail base, 6 h, bioluminescence"}, "[6]": {"test_system": "OVA", "assay": "ELISA for antibody titer after OVA mRNA vaccination", "assay_type": "in vivo", "details": "14 days after second dose"}, "[7]": {"test_system": "liver", "assay": "Luc mRNA expression in liver after subcutaneous tail-base injection of LNP/mLuc (IVIS)", "assay_type": "in vivo, Balb/c mice", "details": "subcutaneous at tail base, 6 h, bioluminescence"}}, "note": "“Also recorded” adds a separate entry of the source.", "data": [{"molecule": "Apolipoprotein A-II", "values": [{"measurement": "eGFP expression, 3′UTR in pcDNA3.0-70nt-eGFP", "setting": "[1]; 48-120 hrs", "value": "top-performing 3′UTR candidates"}, {"measurement": "ARCA capped 70nt-Fluc-eGFP mRNA Fluc expression in the liver", "setting": "[2]", "value": "highest Fluc expression in the liver relative to other eight 3′UTR modifications"}]}, {"molecule": "Pam3CSK4", "values": [{"measurement": "transfection of cells in inguinal lymph nodes", "setting": "[3]", "value": "decreased the transfection efficacy"}, {"measurement": "IL-4 positive T cells (ELISpot)", "setting": "[4]", "value": "increased the Th1 T cell response and percentage of IL-4 secreting T cells; also recorded: significantly induced IL-4 secreting T cells compared with all other groups"}, {"measurement": "Luc mRNA expression in inguinal (draining) lymph nodes", "setting": "[5]", "value": "decreased the mRNA expression in draining lymph nodes"}]}, {"molecule": "CCCCCCCCC(CCCCCC)C(=O)OCCCCCCN(CCCCO)CCCCCCOC(=O)C(CCCCCC)CCCCCCCC", "note": "(stereo not shown) [ALC-0315]", "values": [{"measurement": "transfection of cells in inguinal lymph nodes", "setting": "[3]", "value": "less efficacy compared with 113-F2 LNP; also recorded: successfully delivered Cre mRNA to antigen-presenting cells (APC)"}, {"measurement": "antibody response (total IgG, IgG1, IgG2c)", "setting": "[6]", "value": "peak antibody level"}, {"measurement": "Luc mRNA expression in inguinal (draining) lymph nodes", "setting": "[5]", "value": "obvious signal in draining LNs"}, {"measurement": "Luc mRNA expression in liver", "setting": "[7]", "value": "significantly increased expression of Luc in liver; also recorded: significantly higher expression in liver"}]}, {"molecule": "B1", "values": [{"measurement": "eGFP expression, 5′UTR in pcDNA3.0-eGFP", "setting": "[1]; 36-108 hrs", "value": "top-performing 5′UTR candidates"}]}]}
